IC50 data for 28 molecules are collected here from ChEMBL document CHEMBL3351901 (Bioorg Med Chem, 2014).

Changes are numbered by the printed parent chain. Where only a bound is given, the exact number is not on record here.

The target in assay [1] is T1, Aldo-keto reductase family 1 member C3 (Homo sapiens, UniProt P42330).
T1 sequence (P42330 whole entry): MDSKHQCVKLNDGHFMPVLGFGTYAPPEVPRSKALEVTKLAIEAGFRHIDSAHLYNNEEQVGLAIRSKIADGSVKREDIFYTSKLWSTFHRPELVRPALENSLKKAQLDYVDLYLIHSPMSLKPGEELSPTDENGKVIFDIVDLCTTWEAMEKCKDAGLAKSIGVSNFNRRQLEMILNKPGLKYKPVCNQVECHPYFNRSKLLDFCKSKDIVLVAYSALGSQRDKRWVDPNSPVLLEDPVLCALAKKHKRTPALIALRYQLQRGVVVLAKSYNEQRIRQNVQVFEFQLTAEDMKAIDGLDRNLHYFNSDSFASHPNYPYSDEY
Description: Inhibition of AKR1C3 (unknown origin) assessed as dehydrogenase activity of enzyme by NADPH fluorescence assay

Assay [2] has as its target T2, Aldo-keto reductase family 1 member C1 (Homo sapiens, UniProt Q04828).
T2 sequence (Q04828 whole entry): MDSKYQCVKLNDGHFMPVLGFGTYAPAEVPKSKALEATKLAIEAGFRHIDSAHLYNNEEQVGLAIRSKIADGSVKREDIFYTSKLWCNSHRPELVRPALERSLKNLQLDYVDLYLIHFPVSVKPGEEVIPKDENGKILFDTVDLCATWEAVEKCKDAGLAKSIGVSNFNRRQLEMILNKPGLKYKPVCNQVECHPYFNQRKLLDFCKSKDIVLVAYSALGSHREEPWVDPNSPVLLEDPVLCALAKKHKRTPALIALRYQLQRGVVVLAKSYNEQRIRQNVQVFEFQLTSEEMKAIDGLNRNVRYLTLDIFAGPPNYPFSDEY
The assay can be described thus: Inhibition of AKR1C1 (unknown origin) assessed as dehydrogenase activity of enzyme by NADPH fluorescence assay.

Assay [3] deals with T3, Aldo-keto reductase family 1 member C4 (Homo sapiens, UniProt P17516).
T3 sequence (P17516 whole entry): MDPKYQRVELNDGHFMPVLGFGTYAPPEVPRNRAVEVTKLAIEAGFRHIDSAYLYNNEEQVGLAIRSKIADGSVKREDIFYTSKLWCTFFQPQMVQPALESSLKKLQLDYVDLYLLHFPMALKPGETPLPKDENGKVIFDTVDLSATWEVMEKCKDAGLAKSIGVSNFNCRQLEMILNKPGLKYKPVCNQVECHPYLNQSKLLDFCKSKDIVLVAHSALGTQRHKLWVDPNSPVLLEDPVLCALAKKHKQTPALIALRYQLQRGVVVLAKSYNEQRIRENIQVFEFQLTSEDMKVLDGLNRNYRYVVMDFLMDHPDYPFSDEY
Put plainly: Inhibition of AKR1C4 (unknown origin) assessed as dehydrogenase activity of enzyme by NADPH fluorescence assay.

For assay [4], the target named is T1, Aldo-keto reductase family 1 member C3. The assay can be described thus: Inhibition of AKR1C3-mediated androsterone metabolism in human A549 cells assessed as 5alpha-androstane-3alpha, 17beta-diol after 24 hrs by LC/MS analysis. The assay is classed as cell-based.
In assay [5] the target is T4, Aldo-keto reductase family 1 member C2 (Homo sapiens, UniProt P52895).
T4 sequence (P52895 whole entry): T2 sequence (Q04828 whole entry) with T38V, R47H, L54V, C87S, V151M, R170H, Q172L
The assay can be described thus: Inhibition of AKR1C2 (unknown origin) assessed as dehydrogenase activity of enzyme by NADPH fluorescence assay.

Regarding `Cc1ccc(COc2cc(/C=C/C(=O)O)ccc2OC(=O)CCc2ccccc2)cc1`, the midpoint of inhibition in assay [1], the IC50, lay at 110 nM.
Take `C=C(C)COc1cc(/C=C/C(=O)O)ccc1OC(=O)CCc1ccccc1`: the 50% inhibitory concentration (IC50) in assay [1] came to 850 nM.
Still for that read-out and setting: the value for `O=C(O)/C=C/c1ccc(OC(=O)CCc2ccc(F)cc2)c(OCc2cccc(F)c2)c1` was 540 nM; that for `O=C(O)/C=C/c1ccc(OC(=O)CCc2c(F)cc(F)cc2F)c(OCc2cccc(F)c2)c1` was 580 nM.
Still for that read-out and setting: the value for `O=C(O)/C=C/c1ccc(OC(=O)CCc2ccccc2)c(OCc2ccc(F)cc2)c1` was 220 nM.
On to `CC(C)Oc1cc(/C=C/C(=O)O)ccc1OC(=O)CCc1ccccc1`, for which the midpoint of inhibition in assay [1], the IC50, lay at 3100 nM.
The same measure, in the same setting: the value for `COc1cc(/C=C/C(=O)O)ccc1OC(=O)CCc1ccccc1` was 4500 nM; that for `CCOc1cc(/C=C/C(=O)O)ccc1OC(=O)CCc1ccccc1` was 970 nM; that for `O=C(O)/C=C/c1ccc(OC(=O)CCc2ccccc2)c(OCc2ccccc2F)c1` was 320 nM.
On the same count and under the same terms, for `O=C(O)/C=C/c1ccc(OC(=O)CCc2ccccc2)c(OCc2ccc(Cl)cc2)c1` the value was 890 nM.
For `O=C(O)/C=C/c1ccc(OC(=O)CCc2ccccc2)c(OCc2cccc(O)c2)c1`, the IC50 in assay [2] was 81 µM; in assay [3], 20 µM; in assay [1] it was 20 nM; in assay [4], 8 µM; in assay [5], over 100 µM.
`Cc1ccc(COc2cc(/C=C/C(=O)O)ccc2OC(=O)CCc2cccc(O)c2)cc1` yielded an IC50 in assay [1] of 910 nM.
Molecule `O=C(O)/C=C/c1ccc(OC(=O)CCc2ccccc2)c(OCc2ccccc2)c1` yielded an IC50 in assay [1] of 390 nM.
In turn, `CCCCOc1cc(/C=C/C(=O)O)ccc1OC(=O)CCc1ccccc1` had an IC50 in assay [1] of 420 nM.
On the same count and under the same terms, the value for `O=C(O)/C=C/c1ccc(OC(=O)CCc2ccccc2)c(OCc2cccc(F)c2)c1` was 110 nM; that for `Cc1ccc(COc2cc(/C=C/C(=O)O)ccc2OC(=O)CCc2cccc(F)c2)cc1` was 160 nM; that for `O=C(O)/C=C/c1ccc(OC(=O)CCc2ccccc2)c(OCCc2ccccc2)c1` was 570 nM.
Consider `O=C(O)/C=C/c1ccc(OC(=O)CCc2ccc(O)cc2)c(OCc2cccc(F)c2)c1`, for which, in assay [1], inhibition was half-maximal at 840 nM (IC50).
The same measure, in the same setting: for `O=C(O)/C=C/c1ccc(OC(=O)CCc2cccc(F)c2)c(OCc2cccc(F)c2)c1` the value was 400 nM.
`O=C(O)/C=C/c1ccc(OC(=O)CCc2ccccc2)c(OCc2cc(F)cc(F)c2)c1` gave a half-inhibitory concentration (IC50) in assay [1] of 360 nM.
Still for that read-out and setting: for `CCCOc1cc(/C=C/C(=O)O)ccc1OC(=O)CCc1ccccc1` the value was 2200 nM; for `CC(C)COc1cc(/C=C/C(=O)O)ccc1OC(=O)CCc1ccccc1`, 560 nM.
Consider `COc1cccc(COc2cc(/C=C/C(=O)O)ccc2OC(=O)CCc2ccccc2)c1`, for which the IC50 was over 100 µM in assay [2], over 100 µM in assay [3], 960 nM in assay [1] and over 100 µM in assay [5].
Turning to `Cc1ccc(COc2cc(/C=C/C(=O)O)ccc2OC(=O)CCc2c(F)cc(F)cc2F)cc1`, in assay [1], the IC50 came out at 540 nM.
Still for that read-out and setting: for `C/C=C/COc1cc(/C=C/C(=O)O)ccc1OC(=O)CCc1ccccc1` the value was 1100 nM.
As to `O=C(O)/C=C/c1ccc(OC(=O)CCc2cccc(O)c2)c(OCc2cccc(F)c2)c1`, inhibition in assay [1] was half-maximal at 800 nM (IC50).
Still for that read-out and setting: for `Cc1ccc(COc2cc(/C=C/C(=O)O)ccc2OC(=O)CCc2ccc(F)cc2)cc1` the value was 470 nM; for `Cc1ccc(COc2cc(/C=C/C(=O)O)ccc2OC(=O)CCc2ccc(O)cc2)cc1`, 770 nM.
